Measurements: the NIST ThermoML archive (doi:10.1016/j.fluid.2017.06.022)
± gives the expanded uncertainty stated by the source.

Experiment: xn = mol fraction of the nth substance listed
Settings: Liquid, Bellows volumetry

Compound C=CC [propene] + Cc1ccccc1 has a mass density (422.8 K, 6300 kPa, x1 = 0.7612) of 383 ± 9.4 kg/m3, a mass density (422.8 K, 6800 kPa, x1 = 0.7612) of 392.4 ± 9.6 kg/m3 and a mass density (422.8 K, 7500 kPa, x1 = 0.7612) of 405.5 ± 10 kg/m3. It also gave a mass density (422.8 K, 8900 kPa, x1 = 0.7612) of 424.5 ± 10 kg/m3, a mass density (422.8 K, 10600 kPa, x1 = 0.7612) of 441.8 ± 11 kg/m3 and a mass density (422.8 K, 15400 kPa, x1 = 0.7612) of 476.7 ± 12 kg/m3. For the same compound, the mass density (422.8 K, 17400 kPa, x1 = 0.7612) was 484.1 ± 12 kg/m3, the mass density (422.8 K, 24400 kPa, x1 = 0.7612) was 508.8 ± 12 kg/m3 and the mass density (422.8 K, 31000 kPa, x1 = 0.7612) was 527.4 ± 13 kg/m3. It also gave a mass density (422.8 K, 37800 kPa, x1 = 0.7612) of 543.1 ± 13 kg/m3, a mass density (422.8 K, 44900 kPa, x1 = 0.7612) of 556.7 ± 13 kg/m3 and a mass density (422.8 K, 51600 kPa, x1 = 0.7612) of 566.8 ± 14 kg/m3. The mass density (422.8 K, 58200 kPa, x1 = 0.7612) was 576.2 ± 14 kg/m3, the mass density (422.8 K, 63200 kPa, x1 = 0.7612) was 583.4 ± 14 kg/m3 and the mass density (422.8 K, 67200 kPa, x1 = 0.7612) was 588.5 ± 14 kg/m3. The mass density (424 K, 4500 kPa, x1 = 0.53) was 514 ± 12 kg/m3, the mass density (424 K, 4800 kPa, x1 = 0.53) was 516.1 ± 12 kg/m3 and the mass density (424 K, 5300 kPa, x1 = 0.53) was 519 ± 12 kg/m3. The mass density (424 K, 5900 kPa, x1 = 0.53) was 522.7 ± 13 kg/m3, the mass density (424 K, 7100 kPa, x1 = 0.53) was 529 ± 13 kg/m3 and the mass density (424 K, 8700 kPa, x1 = 0.53) was 535.9 ± 13 kg/m3. For the same compound, the mass density (424 K, 10400 kPa, x1 = 0.53) was 543 ± 13 kg/m3, the mass density (424 K, 17000 kPa, x1 = 0.53) was 563.7 ± 14 kg/m3 and the mass density (424 K, 24000 kPa, x1 = 0.53) was 581.4 ± 14 kg/m3. It also gave a mass density (424 K, 30500 kPa, x1 = 0.53) of 594.5 ± 14 kg/m3, a mass density (425.2 K, 1300 kPa, x1 = 0.1159) of 668.8 ± 16 kg/m3 and a mass density (425.2 K, 1600 kPa, x1 = 0.1159) of 669.7 ± 16 kg/m3. For the same compound, the mass density (425.2 K, 2200 kPa, x1 = 0.1159) was 671 ± 16 kg/m3, the mass density (425.2 K, 3200 kPa, x1 = 0.1159) was 673.2 ± 16 kg/m3 and the mass density (425.2 K, 5400 kPa, x1 = 0.1159) was 678.2 ± 16 kg/m3. It also gave a mass density (425.2 K, 7000 kPa, x1 = 0.1159) of 681.3 ± 16 kg/m3, a mass density (425.2 K, 10300 kPa, x1 = 0.1159) of 688.2 ± 16 kg/m3 and a mass density (425.2 K, 17100 kPa, x1 = 0.1159) of 700.5 ± 17 kg/m3. It also gave a mass density (425.2 K, 24000 kPa, x1 = 0.1159) of 712.3 ± 17 kg/m3, a mass density (425.2 K, 30700 kPa, x1 = 0.1159) of 721.9 ± 17 kg/m3 and a mass density (425.2 K, 37600 kPa, x1 = 0.1159) of 730.7 ± 18 kg/m3. The mass density (425.2 K, 44700 kPa, x1 = 0.1159) was 738.6 ± 18 kg/m3, the mass density (425.2 K, 51400 kPa, x1 = 0.1159) was 745.7 ± 18 kg/m3 and the mass density (425.2 K, 58400 kPa, x1 = 0.1159) was 752.3 ± 18 kg/m3. The mass density (425.2 K, 63100 kPa, x1 = 0.1159) was 756.7 ± 18 kg/m3, the mass density (425.2 K, 67000 kPa, x1 = 0.1159) was 760.1 ± 18 kg/m3 and the mass density (474.3 K, 2200 kPa, x1 = 0.1159) was 604.5 ± 14 kg/m3. The mass density (474.3 K, 2900 kPa, x1 = 0.1159) was 607.4 ± 15 kg/m3, the mass density (474.3 K, 3700 kPa, x1 = 0.1159) was 610.3 ± 15 kg/m3 and the mass density (474.3 K, 5300 kPa, x1 = 0.1159) was 616.2 ± 15 kg/m3. For the same compound, the mass density (474.3 K, 7200 kPa, x1 = 0.1159) was 622.2 ± 15 kg/m3, the mass density (474.3 K, 10500 kPa, x1 = 0.1159) was 632.3 ± 15 kg/m3 and the mass density (474.3 K, 13900 kPa, x1 = 0.1159) was 641.4 ± 15 kg/m3. For the same compound, the mass density (474.3 K, 17400 kPa, x1 = 0.1159) was 650.5 ± 16 kg/m3, the mass density (474.3 K, 20400 kPa, x1 = 0.1159) was 657.2 ± 16 kg/m3 and the mass density (474.3 K, 23700 kPa, x1 = 0.1159) was 664.4 ± 16 kg/m3. The mass density (474.3 K, 31100 kPa, x1 = 0.1159) was 678.2 ± 16 kg/m3, the mass density (474.3 K, 37400 kPa, x1 = 0.1159) was 688.7 ± 16 kg/m3 and the mass density (474.3 K, 38000 kPa, x1 = 0.1159) was 689.6 ± 17 kg/m3. For the same compound, the mass density (474.3 K, 44800 kPa, x1 = 0.1159) was 700.1 ± 17 kg/m3, the mass density (474.3 K, 51300 kPa, x1 = 0.1159) was 708.8 ± 17 kg/m3 and the mass density (474.4 K, 6700 kPa, x1 = 0.53) was 412.3 ± 10 kg/m3. The mass density (474.4 K, 7200 kPa, x1 = 0.53) was 423.9 ± 10 kg/m3, the mass density (474.4 K, 8100 kPa, x1 = 0.53) was 437.9 ± 11 kg/m3 and the mass density (474.4 K, 9200 kPa, x1 = 0.53) was 450.2 ± 11 kg/m3. It also gave a mass density (474.4 K, 10700 kPa, x1 = 0.53) of 464.3 ± 11 kg/m3, a mass density (474.4 K, 13800 kPa, x1 = 0.53) of 487.2 ± 12 kg/m3 and a mass density (474.4 K, 18000 kPa, x1 = 0.53) of 509 ± 12 kg/m3. For the same compound, the mass density (474.4 K, 23800 kPa, x1 = 0.53) was 531.7 ± 13 kg/m3, the mass density (474.4 K, 31300 kPa, x1 = 0.53) was 551.8 ± 13 kg/m3 and the mass density (474.4 K, 37900 kPa, x1 = 0.53) was 566.1 ± 14 kg/m3. The mass density (474.4 K, 44400 kPa, x1 = 0.53) was 579 ± 14 kg/m3, the mass density (474.4 K, 51500 kPa, x1 = 0.53) was 591.3 ± 14 kg/m3 and the mass density (474.4 K, 58400 kPa, x1 = 0.53) was 602.1 ± 14 kg/m3. The mass density (474.4 K, 63100 kPa, x1 = 0.53) was 608.9 ± 15 kg/m3, the mass density (474.4 K, 67200 kPa, x1 = 0.53) was 614.2 ± 15 kg/m3 and the mass density (474.8 K, 7900 kPa, x1 = 0.7612) was 213.2 ± 5.9 kg/m3. The mass density (474.8 K, 8500 kPa, x1 = 0.7612) was 232.7 ± 6.2 kg/m3, the mass density (474.8 K, 9100 kPa, x1 = 0.7612) was 257.3 ± 6.7 kg/m3 and the mass density (474.8 K, 9800 kPa, x1 = 0.7612) was 279.8 ± 7 kg/m3. It also gave a mass density (474.8 K, 10600 kPa, x1 = 0.7612) of 304.4 ± 7.6 kg/m3, a mass density (474.8 K, 11700 kPa, x1 = 0.7612) of 333.8 ± 8.3 kg/m3 and a mass density (474.8 K, 12100 kPa, x1 = 0.7612) of 337.7 ± 8.3 kg/m3. It also gave a mass density (474.8 K, 14600 kPa, x1 = 0.7612) of 374.6 ± 9.1 kg/m3, a mass density (474.8 K, 17400 kPa, x1 = 0.7612) of 402.7 ± 9.8 kg/m3 and a mass density (474.8 K, 24200 kPa, x1 = 0.7612) of 442.3 ± 11 kg/m3. It also gave a mass density (474.8 K, 31800 kPa, x1 = 0.7612) of 475 ± 11 kg/m3, a mass density (474.8 K, 37900 kPa, x1 = 0.7612) of 493.8 ± 12 kg/m3 and a mass density (474.8 K, 44600 kPa, x1 = 0.7612) of 511.3 ± 12 kg/m3. The mass density (474.8 K, 51500 kPa, x1 = 0.7612) was 527.1 ± 13 kg/m3, the mass density (474.8 K, 58300 kPa, x1 = 0.7612) was 540 ± 13 kg/m3 and the mass density (474.8 K, 63100 kPa, x1 = 0.7612) was 547.8 ± 13 kg/m3. It also gave a mass density (474.8 K, 67300 kPa, x1 = 0.7612) of 553.9 ± 13 kg/m3, a mass density (505.4 K, 7200 kPa, x1 = 0.53) of 291.1 ± 7.8 kg/m3 and a mass density (505.4 K, 7700 kPa, x1 = 0.53) of 316.5 ± 8.1 kg/m3. It also gave a mass density (505.4 K, 8000 kPa, x1 = 0.53) of 328 ± 8.4 kg/m3, a mass density (505.4 K, 8700 kPa, x1 = 0.53) of 355.4 ± 8.8 kg/m3 and a mass density (505.4 K, 9500 kPa, x1 = 0.53) of 376.8 ± 9 kg/m3. The mass density (505.4 K, 10600 kPa, x1 = 0.53) was 396.8 ± 9.7 kg/m3, the mass density (505.4 K, 13800 kPa, x1 = 0.53) was 435.7 ± 11 kg/m3 and the mass density (505.4 K, 17400 kPa, x1 = 0.53) was 462.3 ± 11 kg/m3. It also gave a mass density (505.4 K, 24200 kPa, x1 = 0.53) of 495.4 ± 12 kg/m3, a mass density (505.4 K, 31500 kPa, x1 = 0.53) of 523.8 ± 13 kg/m3 and a mass density (505.4 K, 37900 kPa, x1 = 0.53) of 540.2 ± 13 kg/m3. For the same compound, the mass density (505.4 K, 44600 kPa, x1 = 0.53) was 554.8 ± 13 kg/m3, the mass density (505.4 K, 51400 kPa, x1 = 0.53) was 568 ± 14 kg/m3 and the mass density (505.4 K, 58400 kPa, x1 = 0.53) was 579.6 ± 14 kg/m3. For the same compound, the mass density (505.4 K, 62900 kPa, x1 = 0.53) was 587.4 ± 14 kg/m3, the mass density (505.4 K, 66800 kPa, x1 = 0.53) was 592.6 ± 14 kg/m3 and the mass density (554.4 K, 4700 kPa, x1 = 0.1159) was 442.2 ± 11 kg/m3. The mass density (554.4 K, 5300 kPa, x1 = 0.1159) was 460 ± 11 kg/m3, the mass density (554.4 K, 6000 kPa, x1 = 0.1159) was 475.7 ± 12 kg/m3 and the mass density (554.4 K, 6600 kPa, x1 = 0.1159) was 486 ± 12 kg/m3. For the same compound, the mass density (554.4 K, 7200 kPa, x1 = 0.1159) was 493.7 ± 12 kg/m3, the mass density (554.4 K, 9400 kPa, x1 = 0.1159) was 515.7 ± 12 kg/m3 and the mass density (554.4 K, 10800 kPa, x1 = 0.1159) was 526.4 ± 13 kg/m3. The mass density (554.4 K, 17800 kPa, x1 = 0.1159) was 567.8 ± 14 kg/m3, the mass density (554.4 K, 24100 kPa, x1 = 0.1159) was 591.2 ± 14 kg/m3 and the mass density (554.4 K, 30900 kPa, x1 = 0.1159) was 610.7 ± 15 kg/m3. It also gave a mass density (554.4 K, 37900 kPa, x1 = 0.1159) of 626.5 ± 15 kg/m3, a mass density (554.4 K, 44500 kPa, x1 = 0.1159) of 640.2 ± 15 kg/m3 and a mass density (554.4 K, 51800 kPa, x1 = 0.1159) of 653 ± 16 kg/m3. The mass density (554.4 K, 58200 kPa, x1 = 0.1159) was 663.6 ± 16 kg/m3, the mass density (554.4 K, 63300 kPa, x1 = 0.1159) was 671.5 ± 16 kg/m3 and the mass density (554.4 K, 67100 kPa, x1 = 0.1159) was 676.8 ± 16 kg/m3.
